Laboratory results reported in ChEMBL document CHEMBL3232781, “Fluorinated benzophenone derivatives: balanced multipotent agents for Alzheimer's disease” (Eur J Med Chem, 2014).
Activity calls are given as the source filed them. No cut-off for these calls is given here.

Legend:
Acetylcholinesterase = Acetylcholinesterase (Homo sapiens, UniProt P22303); assay: Inhibition of human recombinant AChE using acetylthiocholine iodide as substrate preincubated for 20 mins by Ellman's method
[1] = biological target: Beta-secretase 1 (Homo sapiens) (UniProt P56817); assay: Inhibition of human recombinant BACE-1 using M-2420 as substrate at 3 uM incubated for 1 hr prior to substrate addition measured after 15 mins by FRET assay relative to control
Beta-secretase 1 (Homo sapiens), sequence (P56817 whole entry): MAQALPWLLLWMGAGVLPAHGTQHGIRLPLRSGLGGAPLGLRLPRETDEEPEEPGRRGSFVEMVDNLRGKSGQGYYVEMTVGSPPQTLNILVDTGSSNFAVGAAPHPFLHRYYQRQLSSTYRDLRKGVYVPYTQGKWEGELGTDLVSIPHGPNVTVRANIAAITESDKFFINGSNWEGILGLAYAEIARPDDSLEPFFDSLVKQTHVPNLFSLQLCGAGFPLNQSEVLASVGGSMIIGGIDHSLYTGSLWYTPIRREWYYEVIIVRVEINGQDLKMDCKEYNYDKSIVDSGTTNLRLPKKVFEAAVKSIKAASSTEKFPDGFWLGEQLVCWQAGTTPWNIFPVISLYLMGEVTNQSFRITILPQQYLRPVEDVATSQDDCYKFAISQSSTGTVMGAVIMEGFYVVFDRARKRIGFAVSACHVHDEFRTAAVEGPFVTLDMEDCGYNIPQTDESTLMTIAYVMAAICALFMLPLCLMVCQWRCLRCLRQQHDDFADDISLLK

[2] = biological target: Beta-secretase 1 (Homo sapiens) (UniProt P56817); assay: Inhibition of human recombinant BACE-1 using M-2420 as substrate up to 4 uM incubated for 1 hr prior to substrate addition measured after 15 mins by FRET assay
[3] = biological target: Beta-secretase 1 (Homo sapiens) (UniProt P56817); assay: Inhibition of human recombinant BACE-1 using M-2420 as substrate at 5 uM incubated for 1 hr prior to substrate addition measured after 15 mins by FRET assay relative to control
SH-SY5Y [4] = assay: Antioxidant activity in human SH-SY5Y cells assessed as inhibition of t-BuOOH-induced intracellular ROS formation at 3 to 5 uM after 30 mins by dihydroethidium-based spectrofluorometric analysis; type: functional, cell-based
SH-SY5Y [5] = assay: Antioxidant activity in human SH-SY5Y cells assessed as inhibition of amyloid beta (25 to 35)-induced intracellular ROS formation at 3 to 5 uM after 3 hrs by dihydroethidium-based fluorescence microscopic analysis relative to control; type: functional
SH-SY5Y [6] = assay: Neurotoxicity in human SH-SY5Y cells assessed as decrease in cell viability at 10 to 50 uM after 24 hrs by MTT assay; type: toxicity, cell-based
SH-SY5Y [7] = assay: Antioxidant activity in human SH-SY5Y cells assessed as inhibition of t-BuOOH-induced intracellular ROS formation at 500 uM after 30 mins by dihydroethidium-based spectrofluorometric analysis relative to control; type: functional; conditions: 0.5 h
SH-SY5Y [8] = assay: Antioxidant activity in human SH-SY5Y cells assessed as inhibition of amyloid beta (25 to 35)-induced intracellular ROS formation at 500 uM after 3 hrs by dihydroethidium-based fluorescence microscopic analysis relative to control; type: functional
[9] = biological target: Beta-secretase 1 (Homo sapiens) (UniProt P56817); assay: Inhibition of human recombinant BACE-1 using M-2420 as substrate at 3.38 uM incubated for 1 hr prior to substrate addition measured after 15 mins by FRET assay relative to control

Acetylcholinesterase, sequence (P22303 whole entry): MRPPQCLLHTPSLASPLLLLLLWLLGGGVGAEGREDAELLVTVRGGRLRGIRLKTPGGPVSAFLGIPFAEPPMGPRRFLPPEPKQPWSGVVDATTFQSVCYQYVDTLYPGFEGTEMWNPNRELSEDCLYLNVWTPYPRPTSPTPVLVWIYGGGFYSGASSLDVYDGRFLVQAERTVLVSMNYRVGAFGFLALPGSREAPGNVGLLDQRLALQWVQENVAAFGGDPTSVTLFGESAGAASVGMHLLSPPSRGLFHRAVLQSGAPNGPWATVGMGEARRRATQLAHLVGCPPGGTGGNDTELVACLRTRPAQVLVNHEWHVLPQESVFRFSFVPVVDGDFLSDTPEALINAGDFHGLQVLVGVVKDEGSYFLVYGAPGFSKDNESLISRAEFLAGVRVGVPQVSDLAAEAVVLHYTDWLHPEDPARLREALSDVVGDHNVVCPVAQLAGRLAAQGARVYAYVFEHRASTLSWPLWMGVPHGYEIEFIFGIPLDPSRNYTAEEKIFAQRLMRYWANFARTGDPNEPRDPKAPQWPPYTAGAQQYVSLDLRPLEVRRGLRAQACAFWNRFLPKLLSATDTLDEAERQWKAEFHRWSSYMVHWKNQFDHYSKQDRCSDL

Row | Compound | inhibition (Acetylcholinesterase) | inhibition [1] | inhibition [2] | also measured
1 | O=C(c1ccc(CN2CCC(O)CC2)cc1)c1ccc(O)c(F)c1 | inactive | 32.8% | – | –
2 | CN(Cc1ccccc1)Cc1ccc(C(=O)c2ccc(O)cc2)cc1 | – | – | inactive | –
3 | Cc1ccc(C(=O)c2ccc(O)c(F)c2)cc1 | inactive | 35.4% | – | –
4 | COc1ccc(C(=O)c2ccc(CN(C)Cc3ccccc3)cc2)cc1OC | – | – | – | inhibition [3]: 20%
5 | COc1ccc(C(=O)c2ccc(CN(C)Cc3ccccc3)cc2)cc1 | – | – | inactive | –
6 | O=C(c1ccc(CN2CCN(c3ccccc3)CC2)cc1)c1ccc(O)c(F)c1 | inactive | – | inactive | –
7 | O=C(c1ccc(CN2CCC(CCO)CC2)cc1)c1ccc(O)c(F)c1 | – | 58.7% | – | IC50 (Acetylcholinesterase): 2320 nM; inhibition (SH-SY5Y [4]): Active; Imax (SH-SY5Y [5]): 30%; Activity (SH-SY5Y [6]): Non-toxic
8 | CN(CCO)Cc1ccc(C(=O)c2ccc(O)c(F)c2)cc1 | inactive | 46.7% | – | –
9 | CN(Cc1ccccc1)Cc1ccc(C(=O)c2ccc(O)c(F)c2)cc1 | – | 40.8% | – | IC50 (Acetylcholinesterase): 3660 nM; inhibition (SH-SY5Y [4]): Active; Imax (SH-SY5Y [5]): 30%; Activity (SH-SY5Y [6]): Toxic
10 | CN1CCN(Cc2ccc(C(=O)c3ccc(O)c(F)c3)cc2)CC1 | inactive | – | inactive | –
11 | CC(=O)N[C@@H](CS)C(=O)O [ACETYLCYSTEINE] | – | – | – | inhibition at 500 µM (SH-SY5Y [7]): 35%; inhibition at 500 µM (SH-SY5Y [8]): 35%
12 | COc1ccc(C(=O)c2ccc(CN(C)Cc3ccccc3)cc2)cc1F | – | – | – | inhibition [9]: 10.7%; inhibition (SH-SY5Y [4]): inactive; inhibition (SH-SY5Y [5]): inactive; Activity (SH-SY5Y [6]): Non-toxic
13 | CN(Cc1ccc(C(=O)c2ccc(O)c(F)c2)cc1)Cc1cccc(O)c1 | inactive | – | inactive | –
14 | CN(Cc1ccc(C(=O)c2ccc(O)c(F)c2)cc1)C1CCCCC1 | inactive | 36.2% | – | –
15 | CN(C)CCN(C)Cc1ccc(C(=O)c2ccc(O)c(F)c2)cc1 | inactive | 13.5% | – | –
16 | O=C(c1ccc(CN2CCN(Cc3ccccc3)CC2)cc1)c1ccc(O)c(F)c1 | inactive | – | inactive | –
